In the supplement of paper PMC10307832:

How the values were obtained:
Experiment in all cases: relative viability (nuclei count vs DMSO), 5 days (fraction); higher = more cells survive
[1] = compound: CC[C@H](Nc1ncnc2[nH]cnc12)c1nc2cccc(F)c2c(=O)n1-c1ccccc1 [Idelalisib] + CC(=O)c1c(C)c2cnc(Nc3ccc(N4CCNCC4)cn3)nc2n(C2CCCC2)c1=O [Palbociclib] (partner 0.5 µM)
Procedure, shortened: (§1)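 Relative viability equals treated-well nuclei counts divided by vehicle-well nuclei counts. Counts came from 4× images of lung cancer cell lines grown in 1536-well plates for 5 days after pin-tool dosing on the day after seeding. Dosing used one drug alone or a fixed anchor-drug dose plus five library-drug doses (not always all listed) in √10 steps, and values are medians of duplicate plates.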

[2] = compound: CC[C@H](Nc1ncnc2[nH]cnc12)c1nc2cccc(F)c2c(=O)n1-c1ccccc1 [Idelalisib] + Cc1cc(Nc2cc(N3CCN(C)CC3)nc(Sc3ccc(NC(=O)C4CC4)cc3)n2)n[nH]1 [Tozasertib] (partner 0.1 µM)
Procedure, shortened: as §1

[3] = compound: Nc1nc2[nH]cc(CCc3ccc(C(=O)N[C@@H](CCC(=O)O)C(=O)O)cc3)c2c(=O)[nH]1 [Pemetrexed] + CC(C)C[C@H](NC(=O)[C@H](Cc1ccccc1)NC(=O)c1cnccn1)B(O)O [Bortezomib] (partner 0.002 µM)
Procedure, shortened: as §1

[4] = compound: Nc1nc2[nH]cc(CCc3ccc(C(=O)N[C@@H](CCC(=O)O)C(=O)O)cc3)c2c(=O)[nH]1 [Pemetrexed] + CC1(C)CCC(c2ccc(Cl)cc2)=C(CN2CCN(c3ccc(C(=O)NS(=O)(=O)c4ccc(N[C@H](CCN5CCOCC5)CSc5ccccc5)c(S(=O)(=O)C(F)(F)F)c4)cc3)CC2)C1 [Navitoclax] (partner 0.5 µM)
Procedure, shortened: as §1

## UMC-11
[1]; first compound 0.04 µM
  relative viability: 0.335
[1]; first compound 0.1265 µM
  relative viability: 0.33
[1]; first compound 0.4 µM
  relative viability: 0.298
[1]; first compound 1.265 µM
  relative viability: 0.298
[1]; first compound 4 µM
  relative viability: 0.261
[2]; first compound 0.04 µM
  relative viability: 0.218
[2]; first compound 0.1265 µM
  relative viability: 0.192
[2]; first compound 0.4 µM
  relative viability: 0.203
[2]; first compound 1.265 µM
  relative viability: 0.188
[2]; first compound 4 µM
  relative viability: 0.192
[3]; first compound 0.002 µM
  relative viability: 0.573
[3]; first compound 0.006325 µM
  relative viability: 0.639
[3]; first compound 0.02 µM
  relative viability: 0.682
[3]; first compound 0.06325 µM
  relative viability: 0.991
[3]; first compound 0.2 µM
  relative viability: 0.698
[4]; first compound 0.002 µM
  relative viability: 0.292
[4]; first compound 0.006325 µM
  relative viability: 0.283
[4]; first compound 0.02 µM
  relative viability: 0.354
[4]; first compound 0.06325 µM
  relative viability: 0.312
[4]; first compound 0.2 µM
  relative viability: 0.344
